The test has as its target T1, Human full length PKD1 (Homo sapiens, UniProt Q15139).
T1 construct: Human full length PKD1 at ˜100 μg/mL purchased from Upstate Ltd; purchased Upstate Ltd 14-508
T1 sequence (Q15139 1-912): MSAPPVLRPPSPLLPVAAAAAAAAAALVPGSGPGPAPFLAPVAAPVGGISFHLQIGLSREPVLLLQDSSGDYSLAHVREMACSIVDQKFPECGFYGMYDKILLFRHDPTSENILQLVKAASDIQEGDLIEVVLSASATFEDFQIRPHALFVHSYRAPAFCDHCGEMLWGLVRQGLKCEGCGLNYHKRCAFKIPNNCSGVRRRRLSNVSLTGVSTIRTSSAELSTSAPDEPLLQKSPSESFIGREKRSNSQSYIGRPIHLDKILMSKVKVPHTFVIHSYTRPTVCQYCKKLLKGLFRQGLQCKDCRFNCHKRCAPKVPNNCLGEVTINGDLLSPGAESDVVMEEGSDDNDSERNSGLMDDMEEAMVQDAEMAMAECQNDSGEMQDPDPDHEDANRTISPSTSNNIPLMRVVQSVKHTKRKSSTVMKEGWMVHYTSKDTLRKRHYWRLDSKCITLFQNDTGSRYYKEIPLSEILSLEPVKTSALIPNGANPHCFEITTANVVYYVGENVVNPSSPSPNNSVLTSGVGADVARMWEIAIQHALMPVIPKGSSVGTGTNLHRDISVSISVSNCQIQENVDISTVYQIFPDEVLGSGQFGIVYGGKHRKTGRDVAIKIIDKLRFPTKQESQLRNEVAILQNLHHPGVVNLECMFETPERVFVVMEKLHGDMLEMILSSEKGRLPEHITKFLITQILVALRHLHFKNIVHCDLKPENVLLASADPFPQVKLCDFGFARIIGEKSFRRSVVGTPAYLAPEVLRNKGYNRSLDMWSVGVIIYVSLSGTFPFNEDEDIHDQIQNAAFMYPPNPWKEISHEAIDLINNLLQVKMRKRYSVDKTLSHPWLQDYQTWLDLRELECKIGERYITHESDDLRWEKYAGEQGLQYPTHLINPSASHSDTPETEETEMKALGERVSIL
Briefly: PKD1 (Human Full Length) Enzyme Activity Assay (IMAP fluorescence polarisation). The format is biochemical. The settings on record: 10 μM ATP, 10 point dose-response. The procedure:
PKD1 (Human Full Length) Enzyme Activity Assay
Kinase Assay Reaction Buffer: This consisted of 0.22 μM filtered 25 mM HEPES and 2 mM MgCl2 pH 7.5.
Kinase Enzyme Human full length PKD1 at ˜100 μg/mL purchased from Upstate Ltd (Product code 14-508) was obtained from aliquots stored at −70° C. It was prepared with a final concentration of 0.3 μg/mL by diluting 1:300 in Reaction Buffer (30 μL per 9 mL-5 mL per plate with an additional 4 mL dead volume) and vortexing prior to use.
Substrate: Fluorescein labelled glycogen synthase-derived peptide (FI)-KKLNRTLSVA (also known as MAPKAP K2 substrate) was obtained from Molecular Devices (Product code R7127). […]
The fluorescence polarisation of the substrate in each well was recorded using an analyst microplate reader (Molecular Devices) with a single read at Ex485 Em535 (Analyst settings: Z Height 5 mm, G Factor 0.95, Reads/well 1, Integration 100000 μs, Gain Sensitivity 2).
Percentage inhibition was calculated based on activity of the test sample minus the average values in the blank wells relative to the average values measured in control wells minus the average values in the blank wells.
IC50 values were calculated from 10 point dose sigmoid ‘dose-response’ curves using XIfit software (IDBS inc, USA). […]
(In fluorescence polarisation assays a small probe gives low polarisation when free and higher when bound to something large.)

The compound `CC[C@@H](N)CN(C)c1ccnc(-c2cc(Cl)ccc2O)n1` [XX-276, 2-{4-[((R)-2-Amino-butyl)-methyl-amino]-pyrimidin-2-yl}-4-chloro-phenol] returned a half-maximal inhibitory concentration (IC50) of 0.9 nM. In other words, the sub-nanomolar range.

In general, IC50 refers to the concentration that inhibits the measured activity by half. Higher therefore signals weaker potency.
